From US20020086278A1, “CHROMOGENIC MEDIA CONTAINING BLOOD OR HEMIN” (priority 1999, published 2002)
Where two headings read alike, the source gives them in different places.

Columns and labels:
[1] = test system: Escherichia coli 25922; assay: Example 1: growth and colony color on plates surface-spread with chromogen; assay type: cell-based; details: E. coli 25922
[2] = test system: Branhamella catarrhalis 25238; assay: as above; assay type: cell-based; details: TSA Plain; B. catt 25258
[3] = test system: N. gonorrhoeae 35201; assay: as above; assay type: cell-based; details: Summary of Table I; N. gonorrhoeae 35201
[4] = test system: Gardnerella vaginalis 14019; assay: as above; assay type: cell-based; details: Summary of Table I; G. vaginalis 14014
[5] = test system: E. coli 25922; assay: Example 2: effect of incubation conditions on colony color formation; assay type: cell-based, Escherichia coli; details: 0.004 g/plate
[6] = test system: S. agalactiae 12386; assay: as above; assay type: cell-based, Streptococcus agalactiae; details: 0.004 g/plate, 24 h, CO2
[7] = test system: Branhamella catarrhalis (brca); assay: Example 3: colony color on chromogenic TSA II with 5% sheep blood (chromogen in medium); assay type: cell-based; details: for Colony Color: CO2, 18 h
[8] = test system: Candida albicans (caal); assay: as above; assay type: cell-based
[9] = test system: Citrobacter freundii (cifr); assay: as above; assay type: cell-based; details: for Colony Color: CO2, 18 h
[10] = test system: Entercoccus faecalis (enfa); assay: as above; assay type: cell-based; details: for Colony Color: CO2, 18 h
[11] = test system: E. faecium (enfu); assay: as above; assay type: cell-based
[12] = test system: E. coli (non-O157) (esco); assay type: cell-based; details: chromogenic TSA II with 5% Sheep Blood, 0.1 g/l; 3 strains tested
[13] = test system: Pseudomonas aeruginosa (psae); assay: Example 3: colony color on chromogenic TSA II with 5% sheep blood (chromogen in medium); assay type: cell-based; details: for Colony Color: CO2, 18 h
[14] = test system: Salmonella spp. (sasp); assay type: cell-based; details: for Colony Color: CO2, 18 h
[15] = test system: Serratia marcescens (sema); assay: Example 3: colony color on chromogenic TSA II with 5% sheep blood (chromogen in medium); assay type: cell-based
[16] = test system: Streptococcus agalactiae (stag); assay: as above; assay type: cell-based; details: chromogenic TSA II with 5% Sheep Blood, 0.1 g/l; 3 strains tested
[17] = test system: Staphylococcus aureus (stau); assay: as above; assay type: cell-based
[18] = test system: Staphylococcus Coag Neg (step); assay: as above; assay type: cell-based; details: for Colony Color on Various Chromogenic TSA II with 5% Sheep Blood: CO2, 18 h
[19] = test system: S. milleri (stmi); assay: as above; assay type: cell-based
[20] = test system: S. pneumoniae (stpn); assay: as above; assay type: cell-based; details: for Colony Color on Various Chromogenic TSA II with 5% Sheep Blood: CO2, 18 h
[21] = test system: S pyogenes (stpy); assay: as above; assay type: cell-based; details: CO2, 18 h
[22] = test system: milu 9341; assay: as above; assay type: cell-based; details: CO2, 18 h
[23] = chromogenic TSA II with 5% Sheep Blood, 0.1 g/l, 2 strains tested
[24] = chromogenic TSA II with 5% Sheep Blood, 0.1 g/l, 6 strains tested
[25] = chromogenic TSA II with 5% Sheep Blood, 0.1 g/l, 1 strain tested
[26] = chromogenic TSA II with 5% Sheep Blood, 0.1 g/l, 5 strains tested

O=C(O)[C@H]1O[C@@H](Oc2c[nH]c3ccc(Br)c(Cl)c23)[C@H](O)[C@@H](O)[C@@H]1O [X-Glucuro, X-Glucuronide]
blue: Color ([1]; Choc II) | Color ([1]; TSA II 5SB) | Color ([1]; TSA Plain)
X-Glucuro: Substrates Producing Color ([1]; Summary of Table I) | Substrates Producing Growth Inhibition [3]
ly: Colony Color [22]
blue (d): Colony Color ([5]; Chocolate II Agar, 24 h, air) | Colony Color ([5]; TSA II 5% Sheep Blood, 24 h, air) | Colony Color ([6]; Chocolate II Agar) | Colony Color ([6]; TSA II 5% Sheep Blood)
+: Colony Color (Summary) [12]
0: Colony Color ([7]; brca 25238) | Colony Color ([7]; brca 25240) | Colony Color (Summary) [7, 23] | Colony Color ([8]; caal 10231, CO2, 18 h) | Colony Color (Summary) [8, 23] | Colony Color (Summary) [9, 23] | Colony Color ([9]; cifr 8454) | Colony Color ([9]; cifr 33128) | Colony Color (Summary) [10, 24] | Colony Color ([10]; enfa 597) | Colony Color ([10]; enfa 10741) | Colony Color ([10]; enfa 12953) | Colony Color ([10]; enfa 14506) | Colony Color ([10]; enfa 29212) | Colony Color (Summary) [11, 25] | Colony Color ([11]; enfu 49032, CO2, 18 h) | Colony Color (Summary) ([13]; chromogenic TSA II with 5% Sheep Blood, 0.1 g/l, 3 strains tested) | Colony Color ([13]; psae 9027) | Colony Color ([13]; psae 15442) | Colony Color ([13]; psae 33607) | Colony Color (Summary) [14, 23] | Colony Color ([14]; saty 19430) | Colony Color ([14]; satym 14028) | Colony Color (Summary) [15, 25] | Colony Color ([15]; sema 13880, CO2, 18 h) | Colony Color (Summary) [16] | Colony Color (Summary) [17, 26] | Colony Color ([17]; stau 25923, CO2, 18 h) | Colony Color on Various Chromogenic TSA II with 5% Sheep Blood ([17]; stau t006, CO2, 18 h) | Colony Color on Various Chromogenic TSA II with 5% Sheep Blood ([17]; stau t007, CO2, 18 h) | Colony Color on Various Chromogenic TSA II with 5% Sheep Blood ([17]; stau t008, CO2, 18 h) | Colony Color on Various Chromogenic TSA II with 5% Sheep Blood ([17]; stau t009, CO2, 18 h) | Colony Color (Summary) [18, 26] | Colony Color on Various Chromogenic TSA II with 5% Sheep Blood ([18]; step 12228) | Colony Color on Various Chromogenic TSA II with 5% Sheep Blood ([18]; step cdc1) | Colony Color on Various Chromogenic TSA II with 5% Sheep Blood ([18]; step cdc4) | Colony Color on Various Chromogenic TSA II with 5% Sheep Blood ([18]; stha cdc2) | Colony Color on Various Chromogenic TSA II with 5% Sheep Blood ([18]; stsa cdc3) | Colony Color (Summary) [19, 23] | Colony Color on Various Chromogenic TSA II with 5% Sheep Blood ([19]; stmi 6242, CO2, 18 h) | Colony Color (Summary) [20, 24] | Colony Color on Various Chromogenic TSA II with 5% Sheep Blood ([20]; stpn t259) | Colony Color on Various Chromogenic TSA II with 5% Sheep Blood ([20]; stpn t260) | Colony Color on Various Chromogenic TSA II with 5% Sheep Blood ([20]; stpn t331) | Colony Color on Various Chromogenic TSA II with 5% Sheep Blood ([20]; stpn t628) | Colony Color on Various Chromogenic TSA II with 5% Sheep Blood ([21]; stpy t027) | Colony Color on Various Chromogenic TSA II with 5% Sheep Blood ([21]; stpy t028) | Colony Color on Various Chromogenic TSA II with 5% Sheep Blood ([21]; stpy t029) | Colony Color on Various Chromogenic TSA II with 5% Sheep Blood ([21]; stpy t030)
Glucuro: Substrates Producing Growth Inhibition [4]
db beta: Colony Color on Various Chromogenic TSA II with 5% Sheep Blood ([21]; stpy 51339)
blue (m): Colony Color ([5]; TSA II 5% Sheep Blood, 5 d, ANA) | Colony Color ([5]; TSA II 5% Sheep Blood, 5 d, MA)
>>: Growth [2]
